Measured values: ChEMBL document CHEMBL1201862, “PubChem BioAssay data set” (2004)
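Test compounds were applied to cells in 96-well plates for 48 hours at 5 doses. GI50 is the concentration that inhibits growth by half.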 Calls of active or inactive are those of the source. Rule as the data show it: active = GI50 up to about 1.1 µM and inactive = higher.

How the values were obtained:
Experiment in all cases: NCI tumour cell line growth inhibition, 48 h
K562 = system: K562
NCI-H460 = system: NCI-H460
TK-10 = system: TK-10
A549 = system: A549
SK-MEL-2 = system: SK-MEL-2
HL-60 = system: HL-60
HOP-92 = system: HOP-92
UO-31 = system: UO-31
SK-MEL-28 = system: SK-MEL-28
OVCAR-8 = system: OVCAR-8
NCI-H522 = system: NCI-H522
OVCAR-5 = system: OVCAR-5
SK-OV-3 = system: SK-OV-3
ACHN = system: ACHN
LOX IMVI = system: LOX IMVI
UACC-257 = system: UACC-257
EKVX = system: EKVX
HCC 2998 = system: HCC 2998

Measured: GI50

CN(C(=O)c1ccco1)C(=S)N1CCN(c2ccccn2)CC1
inactive: K562 > 100 µM | NCI-H460 > 100 µM | TK-10 > 100 µM | A549 > 100 µM | SK-MEL-2 > 100 µM | HL-60 > 100 µM | HOP-92 > 100 µM | UO-31 > 100 µM | SK-MEL-28 > 100 µM | OVCAR-8 > 100 µM | NCI-H522 > 100 µM | OVCAR-5 > 100 µM | SK-OV-3 > 100 µM | ACHN > 100 µM | LOX IMVI > 100 µM | UACC-257 > 100 µM

CN(C(=O)c1ccc(Cl)cc1)C(=S)N1CCN(c2ccccn2)CC1
inactive: K562 > 100 µM | NCI-H460 > 100 µM | TK-10 > 100 µM | A549 > 100 µM | SK-MEL-2 > 100 µM | HL-60 > 100 µM | HOP-92 35.6 µM | UO-31 > 100 µM | SK-MEL-28 > 100 µM | OVCAR-8 > 100 µM | NCI-H522 > 100 µM | OVCAR-5 > 100 µM | SK-OV-3 > 100 µM | ACHN > 100 µM | LOX IMVI > 100 µM | UACC-257 > 100 µM

CN1CCCS/C1=C1/SC(=S)N(c2ccccc2)C1=O
inactive: K562 > 100 µM | NCI-H460 > 100 µM | TK-10 > 100 µM | A549 > 100 µM | EKVX > 100 µM | SK-MEL-2 > 100 µM | HL-60 > 100 µM | HOP-92 > 100 µM | UO-31 > 100 µM | SK-MEL-28 > 100 µM | OVCAR-8 > 100 µM | NCI-H522 > 100 µM | OVCAR-5 > 100 µM | SK-OV-3 > 100 µM | ACHN > 100 µM | LOX IMVI > 100 µM | UACC-257 > 100 µM

NC(=O)c1ncn(Cc2ccccc2)c1CNC(N)=S
inactive: K562 > 100 µM | NCI-H460 > 100 µM | TK-10 > 100 µM | A549 > 100 µM | EKVX > 100 µM | HCC 2998 > 100 µM | HL-60 > 100 µM | UO-31 > 100 µM | SK-MEL-28 > 100 µM | OVCAR-8 > 100 µM | OVCAR-5 > 100 µM | SK-OV-3 > 100 µM | ACHN > 100 µM | LOX IMVI > 100 µM

CC(C)(C)C(=O)OCC1CCC(n2cnc3c(=O)[nH]c(N)nc32)O1 (centres undefined)
inactive: K562 > 100 µM | NCI-H460 > 100 µM | TK-10 > 100 µM | A549 > 100 µM | EKVX > 100 µM | SK-MEL-2 > 100 µM | HCC 2998 > 100 µM | HOP-92 > 100 µM | UO-31 > 100 µM | SK-MEL-28 > 100 µM | OVCAR-8 > 100 µM | OVCAR-5 > 100 µM | SK-OV-3 > 100 µM | ACHN > 100 µM | LOX IMVI > 100 µM | UACC-257 > 100 µM

O=C(CC(=O)N1N=C(c2ccccc2)C(/N=N/c2ccccc2Cl)C1=O)Nc1ccccc1Cl (centres undefined)
inactive: K562 31.1 µM | NCI-H460 56.2 µM | TK-10 15.4 µM | A549 21.4 µM | EKVX 33.1 µM | SK-MEL-2 43.5 µM | HCC 2998 > 100 µM | HL-60 13 µM | UO-31 57.9 µM | SK-MEL-28 44.3 µM | OVCAR-8 31.7 µM | NCI-H522 28.9 µM | OVCAR-5 > 100 µM | SK-OV-3 28.6 µM | ACHN 20.2 µM | LOX IMVI 31.3 µM | UACC-257 48.4 µM

CC1=C2N3C[C@@H](n4c(=O)n(C)c(=O)n43)C23CCC1n1c(=O)n(C)c(=O)n13
inactive: K562 61 µM | NCI-H460 > 100 µM | TK-10 > 100 µM | EKVX > 100 µM | HCC 2998 7.85 µM | HL-60 > 100 µM | UO-31 > 100 µM | SK-MEL-28 > 100 µM | OVCAR-8 > 100 µM | OVCAR-5 > 100 µM | ACHN > 100 µM | LOX IMVI 52.8 µM | UACC-257 > 100 µM
